Source: publication PMC7615656 (European journal of pharmacology, 2010)

Experiments:
[1] = target: recombinant rat α1β3γ2 receptors (Rattus norvegicus, UniProt P18508+P62813); experiment: Two-electrode voltage clamp of GABA-induced chloride currents in Xenopus oocytes; format: cell-based; conditions: for efficacy (% GABA EC3): α1β3γ2, ns = not significant
[2] = target: recombinant rat α2β3γ2F77I receptors (Rattus norvegicus, UniProt P18508+P23576, F115I); experiment: as above; format: cell-based; conditions: α2β3γ2F77I, ns = not significant
[3] = target: recombinant rat α2β3γ2 receptors (Rattus norvegicus, UniProt P18508+P23576); experiment: as above; format: cell-based; conditions: for efficacy (% GABA EC3): α2β3γ2, ns = not significant
[4] = target: recombinant rat α4β3γ2 receptors (Rattus norvegicus, UniProt P18508+P28471); experiment: as above; format: cell-based; conditions: for efficacy (% GABA EC3): α4β3γ2, ns = not significant
[5] = target: recombinant rat α6β3γ2 receptors (Rattus norvegicus, UniProt P18508+P30191); experiment: as above; format: cell-based; conditions: for efficacy (% GABA EC3): α6β3γ2, ns = not significant
[6] = target: recombinant rat α5β3γ2F77I receptors (Rattus norvegicus, UniProt P18508+P19969, F115I); experiment: as above; format: cell-based; conditions: for efficacy (% GABA EC3): α5β3γ2F77I, ns = not significant
[7] = target: recombinant rat α6β3γ2F77I receptors (Rattus norvegicus, UniProt P18508+P30191, F115I); experiment: as above; format: cell-based; conditions: ns = not significant
[8] = target: recombinant rat α3β3γ2 receptors (Rattus norvegicus, UniProt P18508+P20236); experiment: as above; format: cell-based; conditions: for efficacy (% GABA EC3): α3β3γ2, ns = not significant
[9] = target: recombinant rat α5β3γ2 receptors (Rattus norvegicus, UniProt P18508+P19969); experiment: as above; format: cell-based; conditions: for efficacy (% GABA EC3): α5β3γ2, ns = not significant
[10] = target: recombinant rat α4β3γ2F77I receptors (Rattus norvegicus, UniProt P18508+P28471, F115I); experiment: as above; format: cell-based; conditions: ns = not significant
[11] = target: recombinant rat α3β3γ2F77I receptors (Rattus norvegicus, UniProt P18508+P20236, F115I); experiment: as above; format: cell-based; conditions: α3β3γ2F77I, ns = not significant
[12] = system: GABAA receptors containing the γ2F77I mutation; experiment: Modulation of GABA EC3 in receptors containing the γ2F77I mutation; format: cell-based, rat; conditions: up to 100 nM
[13] = target: recombinant rat α1β3γ2F77I receptors (Rattus norvegicus, UniProt P18508+P62813, F115I); experiment: Two-electrode voltage clamp of GABA-induced chloride currents in Xenopus oocytes; format: cell-based; conditions: α1β3γ2F77I, ns = not significant

Sequence of recombinant rat α2β3γ2F77I receptors (P23576 29-451): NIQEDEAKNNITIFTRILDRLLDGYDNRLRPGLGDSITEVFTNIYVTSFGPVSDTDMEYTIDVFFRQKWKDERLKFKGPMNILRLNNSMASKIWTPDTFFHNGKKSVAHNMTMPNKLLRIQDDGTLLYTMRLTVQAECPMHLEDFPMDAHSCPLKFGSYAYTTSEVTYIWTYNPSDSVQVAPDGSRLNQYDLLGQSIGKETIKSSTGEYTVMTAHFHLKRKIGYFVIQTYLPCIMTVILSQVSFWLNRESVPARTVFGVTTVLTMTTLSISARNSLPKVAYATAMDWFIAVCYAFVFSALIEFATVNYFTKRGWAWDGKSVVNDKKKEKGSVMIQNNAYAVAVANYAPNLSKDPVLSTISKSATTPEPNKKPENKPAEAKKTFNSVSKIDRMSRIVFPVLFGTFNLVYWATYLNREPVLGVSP
Sequence of recombinant rat α2β3γ2F77I receptors (P63079 26-473 partner): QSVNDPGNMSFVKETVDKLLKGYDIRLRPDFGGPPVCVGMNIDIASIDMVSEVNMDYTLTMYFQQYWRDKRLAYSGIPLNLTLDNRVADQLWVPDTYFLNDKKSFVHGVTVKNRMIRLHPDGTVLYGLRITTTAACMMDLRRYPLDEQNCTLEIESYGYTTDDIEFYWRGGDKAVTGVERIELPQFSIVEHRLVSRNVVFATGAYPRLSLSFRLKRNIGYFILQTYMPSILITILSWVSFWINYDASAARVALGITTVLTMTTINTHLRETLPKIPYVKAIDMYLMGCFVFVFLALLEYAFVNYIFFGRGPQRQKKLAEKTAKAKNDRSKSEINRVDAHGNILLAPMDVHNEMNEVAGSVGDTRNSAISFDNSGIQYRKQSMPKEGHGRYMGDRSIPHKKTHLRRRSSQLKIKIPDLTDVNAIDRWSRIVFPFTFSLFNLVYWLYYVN
Sequence of recombinant rat α2β3γ2F77I receptors (P18508 39-466 F115I): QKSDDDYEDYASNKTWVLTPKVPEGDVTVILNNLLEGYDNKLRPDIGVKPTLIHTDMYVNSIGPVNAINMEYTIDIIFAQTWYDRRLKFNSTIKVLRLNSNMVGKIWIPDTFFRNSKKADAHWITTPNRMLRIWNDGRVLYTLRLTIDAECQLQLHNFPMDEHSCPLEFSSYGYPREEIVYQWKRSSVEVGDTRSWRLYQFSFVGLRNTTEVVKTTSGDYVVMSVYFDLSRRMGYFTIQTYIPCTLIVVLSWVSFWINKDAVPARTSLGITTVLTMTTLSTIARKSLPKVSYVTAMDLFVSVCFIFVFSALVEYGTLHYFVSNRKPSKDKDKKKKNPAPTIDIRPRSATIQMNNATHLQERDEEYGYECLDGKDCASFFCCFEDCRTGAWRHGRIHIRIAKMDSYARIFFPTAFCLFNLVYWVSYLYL
Sequence of recombinant rat α2β3γ2 receptors (P23576 29-451): as the sequence (P23576 29-451) above
Sequence of recombinant rat α2β3γ2 receptors (P63079 26-473 partner): as the sequence (P63079 26-473 partner) above
Sequence of recombinant rat α2β3γ2 receptors (P18508 39-466): as the sequence (P18508 39-466 F115I) above, with I77F counted along it
Sequence of recombinant rat α6β3γ2F77I receptors (P30191 20-453): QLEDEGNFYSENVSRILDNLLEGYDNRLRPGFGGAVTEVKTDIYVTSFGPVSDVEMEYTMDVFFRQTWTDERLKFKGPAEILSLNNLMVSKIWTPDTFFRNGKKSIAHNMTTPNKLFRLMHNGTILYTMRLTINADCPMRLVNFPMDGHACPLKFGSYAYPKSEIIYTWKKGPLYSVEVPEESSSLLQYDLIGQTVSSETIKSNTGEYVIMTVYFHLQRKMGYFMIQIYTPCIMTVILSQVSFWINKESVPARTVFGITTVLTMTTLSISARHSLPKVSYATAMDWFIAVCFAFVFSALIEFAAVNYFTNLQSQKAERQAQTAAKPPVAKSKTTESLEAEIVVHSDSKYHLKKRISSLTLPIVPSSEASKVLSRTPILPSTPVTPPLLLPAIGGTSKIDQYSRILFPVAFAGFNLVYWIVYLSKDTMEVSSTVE
Sequence of recombinant rat α6β3γ2F77I receptors (P63079 26-473 partner): as the sequence (P63079 26-473 partner) above
Sequence of recombinant rat α6β3γ2F77I receptors (P18508 39-466 F115I): as the sequence (P18508 39-466 F115I) above

CC(C)(C)OC(=O)c1ncn2c1[C@@H]1CCCN1C(=O)c1c(Br)cccc1-2 [Bretazenil, t-butyl(s)-8-bromo-11,12,13,13a-tetrahydro-9-oxo-9H-imidazo[1,5-a] pyrrolo[2,1-c][1,4]benzodiazepine-1-carboxylate]
EC50 [1]: 4 ± 1 nM | efficacy (% GABA EC3) ([1]; 10 nM): 126 ± 5 % GABA EC3 | efficacy (% GABA EC3) ([1]; 100 nM): 134 ± 7 % GABA EC3 | efficacy (% GABA EC3) ([1]; 1 μM): 136 ± 9 % GABA EC3 | efficacy (% GABA EC3) ([1]; 10 μM): 138 ± 10 % GABA EC3 | efficacy (% GABA EC3) ([2]; 10 nM): ns | efficacy (% GABA EC3) ([2]; 1 μM): 125 ± 3 % GABA EC3 | efficacy (% GABA EC3) ([2]; 10 μM): 179 ± 8 % GABA EC3 | EC50 [3]: 7 ± 1 nM | efficacy (% GABA EC3) ([3]; 10 nM): 119 ± 4 % GABA EC3 | efficacy (% GABA EC3) ([3]; 100 nM): 128 ± 5 % GABA EC3 | efficacy (% GABA EC3) ([3]; 1 μM): 130 ± 7 % GABA EC3 | efficacy (% GABA EC3) ([3]; 10 μM): 129 ± 10 % GABA EC3 | EC50 [4]: > 354 nM | efficacy (% GABA EC3) ([4]; 10 nM): ns | efficacy (% GABA EC3) ([4]; 100 nM): 156 ± 11 % GABA EC3 | efficacy (% GABA EC3) ([4]; 1 μM): 332 ± 23 % GABA EC3 | efficacy (% GABA EC3) ([4]; 10 μM): 395 ± 8 % GABA EC3 | EC50 [5]: > 322 nM | efficacy (% GABA EC3) ([5]; 10 nM): ns | efficacy (% GABA EC3) ([5]; 100 nM): ns | efficacy (% GABA EC3) ([5]; 1 μM): 202 ± 12 % GABA EC3 | efficacy (% GABA EC3) ([5]; 10 μM): 231 ± 13 % GABA EC3 | EC50 [6]: > 748 nM | efficacy (% GABA EC3) ([6]; 10 nM): ns | efficacy (% GABA EC3) ([6]; 100 nM): 124 ± 3 % GABA EC3 | efficacy (% GABA EC3) ([6]; 1 μM): 193 ± 8 % GABA EC3 | efficacy (% GABA EC3) ([6]; 10 μM): 249 ± 11 % GABA EC3 | efficacy (% GABA EC3) ([7]; 10 nM): ns | efficacy (% GABA EC3) ([7]; 100 nM): ns | efficacy (% GABA EC3) ([7]; 1 μM): ns | efficacy (% GABA EC3) ([7]; 10 μM): ns | EC50 [8]: 15 ± 2 nM | efficacy (% GABA EC3) ([8]; 10 nM): 154 ± 6 % GABA EC3 | efficacy (% GABA EC3) ([8]; 100 nM): 213 ± 11 % GABA EC3 | efficacy (% GABA EC3) ([8]; 1 μM): 224 ± 14 % GABA EC3 | efficacy (% GABA EC3) ([8]; 10 μM): 234 ± 17 % GABA EC3 | EC50 [9]: 9 ± 2 nM | efficacy (% GABA EC3) ([9]; 10 nM): 168 ± 13 % GABA EC3 | efficacy (% GABA EC3) ([9]; 100 nM): 205 ± 17 % GABA EC3 | efficacy (% GABA EC3) ([9]; 1 μM): 216 ± 22 % GABA EC3 | efficacy (% GABA EC3) ([9]; 10 μM): 228 ± 23 % GABA EC3 | efficacy (% GABA EC3) ([10]; 10 nM): ns | efficacy (% GABA EC3) ([10]; 100 nM): ns | efficacy (% GABA EC3) ([10]; 1 μM): ns | efficacy (% GABA EC3) ([10]; 10 μM): ns | efficacy (% GABA EC3) ([11]; 10 nM): ns | efficacy (% GABA EC3) ([11]; 100 nM): 117 ± 3 % GABA EC3 | efficacy (% GABA EC3) ([11]; 1 μM): 143 ± 7 % GABA EC3 | efficacy (% GABA EC3) ([11]; 10 μM): 238 ± 15 % GABA EC3 | activity in the mutated receptors [12]: inactive | efficacy (% GABA EC3) ([13]; 10 nM): ns | efficacy (% GABA EC3) ([13]; 100 nM): 120 ± 6 % GABA EC3 | efficacy (% GABA EC3) ([13]; 1 μM): 149 ± 12 % GABA EC3 | efficacy (% GABA EC3) ([13]; 10 μM): 164 ± 21 % GABA EC3
